Data reported in PubChem BioAssay AID2060895 (Molecular Pharmacology Branch, DTP, NCI, 2025).

Tested on: PDC 899932-113-R3-J6 complex spheroid viability
Assay: Anticancer human tumor 899932-113-R3-J6-PDC patient-derived melanoma cell line growth inhibition [RAS]
Conditions: for viability, T/C: stronger effect = lower value
Method in brief: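 Tumour cells grown as complex spheroids with HUVEC endothelial cells and mesenchymal stem cells, treated with RAS pathway inhibitor combinations. Each agent spans half-log steps from near clinical Cmax, or 10 microM where Cmax is unknown.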
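Throughout, for viability, T/C: spheroids exposed to agents for seven days before readout; 100% = DMSO vehicle control wells.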

What does the source list for `CCN1CCN(Cc2ccc(Nc3ncc(F)c(-c4cc(F)c5nc(C)n(C(C)C)c5c4)n3)nc2)CC1`?
viability, T/C (compound 0.00316 µM): 104% [middle of 4 runs]; viability, T/C (compound 0.01 µM): 97.6% [middle of 4 runs]; viability, T/C (compound 0.0316 µM): 97% [middle of 4 runs]; viability, T/C (compound 0.1 µM): 80.7% [middle of 4 runs]; viability, T/C (compound 0.316 µM): 71% [middle of 4 runs]; viability, T/C (compound 1 µM): 30.1% [middle of 4 runs]; IC50 (curve of compound): 583 nM [middle of 4 runs]

Which IC50 (curve of first compound, second compound 0.000949 µM) does the source give for `CCC(CC)c1cc(NC2CCC(N)C2)n2nccc2n1` (centres undefined) + CCn1c(-c2cccnc2C(C)OC)c2c3cc(ccc31)N1CCOC(CC(NC(=O)C(C(C)C)N(C)C(=O)C3(F)CCN(C(=O)C#CC(C)(C)N(C)C)CC3)C(=O)N3CCCC(N3)C(=O)OCC(C)(C)C2)C1 here?
The IC50 was 1460 nM.

What about the IC50 (curve of first compound, second compound 0.003 µM) of the same compound?
The IC50 was 1580 nM.

And the IC50 (curve of first compound, second compound 0.00949 µM)?
Its IC50 is 1500 nM.

And the IC50 (curve of first compound, second compound 0.03 µM)?
Its IC50 is 1490 nM.

And the IC50 (curve of first compound, second compound 0.0949 µM)?
The IC50 was 1310 nM.

And the IC50 (curve of first compound, second compound 0.3 µM)?
Its IC50 is 1220 nM.

And the viability, T/C (second compound 0.000949 µM, first compound 0.0316 µM)?
Its viability, T/C is 104%.

And the viability, T/C (second compound 0.000949 µM, first compound 0.1 µM)?
Its viability, T/C is 86.7%.

What about the viability, T/C (second compound 0.000949 µM, first compound 0.316 µM) of the same compound?
The viability, T/C was 94.8%.

And the viability, T/C (second compound 0.000949 µM, first compound 1 µM)?
The viability, T/C was 73.8%.

And the viability, T/C (second compound 0.000949 µM, first compound 3.16 µM)?
Its viability, T/C is 1.84%.

And the viability, T/C (second compound 0.000949 µM, first compound 10 µM)?
Its viability, T/C is 0.94%.

And the viability, T/C (second compound 0.003 µM, first compound 0.0316 µM)?
Its viability, T/C is 95.8%.

What about the viability, T/C (second compound 0.003 µM, first compound 0.1 µM) of the same compound?
The viability, T/C was 85.5%.

And the viability, T/C (second compound 0.003 µM, first compound 0.316 µM)?
Its viability, T/C is 90.9%.

And the viability, T/C (second compound 0.003 µM, first compound 1 µM)?
The viability, T/C was 81.7%.

What about the viability, T/C (second compound 0.003 µM, first compound 3.16 µM) of the same compound?
Its viability, T/C is 1.51%.

And the viability, T/C (second compound 0.003 µM, first compound 10 µM)?
The viability, T/C was 1.01%.

What about the viability, T/C (second compound 0.00949 µM, first compound 0.0316 µM) of the same compound?
The viability, T/C was 94.7%.

What about the viability, T/C (second compound 0.00949 µM, first compound 0.1 µM) of the same compound?
The viability, T/C was 82.3%.

And the viability, T/C (second compound 0.00949 µM, first compound 0.316 µM)?
The viability, T/C was 87.1%.

And the viability, T/C (second compound 0.00949 µM, first compound 1 µM)?
Its viability, T/C is 76.7%.

What about the viability, T/C (second compound 0.00949 µM, first compound 3.16 µM) of the same compound?
The viability, T/C was 1.18%.

And the viability, T/C (second compound 0.00949 µM, first compound 10 µM)?
The viability, T/C was 0.88%.

What about the viability, T/C (second compound 0.03 µM, first compound 0.0316 µM) of the same compound?
The viability, T/C was 86.7%.

And the viability, T/C (second compound 0.03 µM, first compound 0.1 µM)?
Its viability, T/C is 77.1%.

And the viability, T/C (second compound 0.03 µM, first compound 0.316 µM)?
The viability, T/C was 85.3%.

And the viability, T/C (second compound 0.03 µM, first compound 1 µM)?
The viability, T/C was 75.9%.

And the viability, T/C (second compound 0.03 µM, first compound 3.16 µM)?
The viability, T/C was 1.56%.

What about the viability, T/C (second compound 0.03 µM, first compound 10 µM) of the same compound?
Its viability, T/C is 0.52%.

What about the viability, T/C (second compound 0.0949 µM, first compound 0.0316 µM) of the same compound?
The viability, T/C was 80.2%.

What about the viability, T/C (second compound 0.0949 µM, first compound 0.1 µM) of the same compound?
Its viability, T/C is 83.4%.

And the viability, T/C (second compound 0.0949 µM, first compound 0.316 µM)?
Its viability, T/C is 87.5%.

And the viability, T/C (second compound 0.0949 µM, first compound 1 µM)?
Its viability, T/C is 64.8%.

And the viability, T/C (second compound 0.0949 µM, first compound 3.16 µM)?
The viability, T/C was 1.71%.

And the viability, T/C (second compound 0.0949 µM, first compound 10 µM)?
Its viability, T/C is 0.88%.

What about the viability, T/C (second compound 0.3 µM, first compound 0.0316 µM) of the same compound?
Its viability, T/C is 79.8%.

And the viability, T/C (second compound 0.3 µM, first compound 0.1 µM)?
Its viability, T/C is 73.5%.

And the viability, T/C (second compound 0.3 µM, first compound 0.316 µM)?
The viability, T/C was 77.9%.

And the viability, T/C (second compound 0.3 µM, first compound 1 µM)?
The viability, T/C was 60%.

And the viability, T/C (second compound 0.3 µM, first compound 3.16 µM)?
The viability, T/C was 1.44%.

And the viability, T/C (second compound 0.3 µM, first compound 10 µM)?
The viability, T/C was 0.36%.
